Like-named read-outs stand apart in the source and are kept apart here.
What was measured:
[1] = target: T1, bovine parathyroid cell calcium receptor (BoPCaR 1) (Bos taurus, UniProt P35384); assay: Cl- current in Xenopus oocytes expressing BoPCaR 1; format: cell-based
T1 construct: Xenopus oocytes were injected with BoPCaR 1, the 5.3 Kb cDNA encoding a bovine parathyroid cell calcium receptor; expressed in transfected cells; host or cells: Xenopus laevis oocytes injected with cRNA/cDNA of BoPCaR 1
T1 sequence (P35384 20-1085): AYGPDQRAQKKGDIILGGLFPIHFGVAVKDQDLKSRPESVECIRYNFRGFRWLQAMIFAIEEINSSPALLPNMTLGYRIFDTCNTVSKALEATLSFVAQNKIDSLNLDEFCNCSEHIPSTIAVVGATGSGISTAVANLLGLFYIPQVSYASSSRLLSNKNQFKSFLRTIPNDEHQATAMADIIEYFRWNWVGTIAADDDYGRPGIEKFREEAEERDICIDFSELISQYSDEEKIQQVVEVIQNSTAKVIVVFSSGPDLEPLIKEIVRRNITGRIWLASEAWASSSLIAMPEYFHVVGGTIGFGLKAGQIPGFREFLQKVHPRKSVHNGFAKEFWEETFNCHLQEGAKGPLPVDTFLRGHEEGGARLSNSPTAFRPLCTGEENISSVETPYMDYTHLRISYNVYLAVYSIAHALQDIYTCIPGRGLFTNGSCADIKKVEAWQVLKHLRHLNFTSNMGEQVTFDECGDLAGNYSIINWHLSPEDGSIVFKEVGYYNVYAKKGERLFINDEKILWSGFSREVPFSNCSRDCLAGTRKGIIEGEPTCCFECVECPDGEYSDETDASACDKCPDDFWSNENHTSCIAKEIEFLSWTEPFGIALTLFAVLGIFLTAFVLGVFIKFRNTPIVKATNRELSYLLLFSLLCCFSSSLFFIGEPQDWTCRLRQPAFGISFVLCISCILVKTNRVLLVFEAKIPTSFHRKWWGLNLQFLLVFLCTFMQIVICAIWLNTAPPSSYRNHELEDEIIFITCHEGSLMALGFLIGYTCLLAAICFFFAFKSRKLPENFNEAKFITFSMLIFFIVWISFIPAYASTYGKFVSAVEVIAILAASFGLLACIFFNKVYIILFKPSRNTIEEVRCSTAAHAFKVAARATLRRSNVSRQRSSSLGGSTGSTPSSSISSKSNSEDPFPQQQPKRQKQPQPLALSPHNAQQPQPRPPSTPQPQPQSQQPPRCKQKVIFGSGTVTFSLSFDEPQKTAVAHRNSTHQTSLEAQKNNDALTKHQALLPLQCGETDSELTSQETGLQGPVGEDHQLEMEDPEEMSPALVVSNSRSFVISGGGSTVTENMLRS
Method: Following incubation, an oocyte was placed into a 100-μl plastic chamber and superfused with MBS at a flow rate of 0.5 ml/min using a peristaltic pump. Test molecules or inorganic polycations were added by rapidly moving the tubing into different buffers. Recording and current-passing electrodes were constructed from thin-wall capillary tubing pulled to a resistance of 1-3 Mohms and filled with 3M KCl. […] Currents were recorded directly onto a strip chart recorder.
The techniques used to clone the parathyroid calcium receptor are briefly described in this example; a more complete description of the techniques is provided in preceding sections, which describe techniques which may be used to clone additional forms of the Ca^2+ -receptor from other cell types. Poly(A^+)-enriched mRNA was initially prepared from bovine parathyroid glands by extracting with guanidinium thiocyanate, centrifugation through CsCl and oligo(dT) cellulose chromatography. […] No such currents were elicited in control eggs injected with water.
These responses are mediated by the following series of biochemical events:
Xenopus oocytes were injected with BoPCaR 1, the 5.3 Kb cDNA encoding a bovine parathyroid cell calcium receptor as described in Example 25. After two to three days, Cl^- currents were examined in the oocytes using a two-electrode voltage clamp.
Xenopus oocytes were injected with BoPCaR 1 as described in Example 25. After two to three days, Cl^- currents were examined in the oocytes using two electrode voltage clamp.

[2] = test system: parathyroid cell calcium receptor; format: cell-based; conditions: for response of bovine parathyroid cells or Xenopus oocytes expressing calcium receptors to mGluR agonists: bovine parathyroid cells or calcium receptor-expressing Xenopus oocytes; for mobilization of intracellular Ca2+: 500 μM
Method: For example, bovine parathyroid cells loaded with fura-2 are initially suspended in buffer containing 0.5 mM CaCl2. A test substance is added to the cuvette in a small volume (5-15 μl) and changes in the fluorescence signal are measured. Cumulative increases in the concentration of the test substance are made in the cuvette until some predetermined concentration is achieved or no further changes in fluorescence are noted.
This section describes procedures used to obtain and treat parathyroid cells from calves and humans. […] Human parathyroid glands, were obtained from patients undergoing surgical removal of parathyroid tissue for primary or uremic hyperparathyroidism (uremic HPT), and were treated similarly to bovine tissue.
Glands were trimmed of excess fat and connective tissue and then minced with fine scissors into cubes approximately 2-3 mm on a side. Dissociated parathyroid cells were prepared by collagenase digestion and then purified by centrifugation in Percoll buffer. The resultant parathyroid cell preparation was essentially devoid of red blood cells, adipocytes, and capillary tissue as assessed by phase contrast microscopy and Sudan black B staining. Dissociated and purified parathyroid cells were present as small clusters containing 5 to 20 cells.
(§1) The cells were then pelleted, resuspended in the same buffer, but lacking the ester, and incubated a further 15 minutes at 37° C. The cells were subsequently washed twice with PCB containing 0.5 mM CaCl2 and 0.5% BSA and maintained at room temperature (about 20° C.). Immediately before use, the cells were diluted five-fold with prewarmed 0.5 mM CaCl2 -PCB to obtain a final BSA concentration of 0.1%. The concentration of cells in the cuvette used for fluorescence recording was 1-2×10^6 /ml.
(§2) The fluorescence of indicator-loaded cells was measured at 37° C. in a spectrofluorimeter (Biomedical Instrumentation Group, University of Pennsylvania, Philadelphia, Pa.) equipped with a thermostated cuvette holder and magnetic stirrer using excitation and emission wavelengths of 340 and 510 nm, respectively. […] Leakage of dye is dependent on temperature and most occurs within the first 2 minutes after warming the cells in the cuvette. Dye leakage increases only very slowly thereafter. To correct the calibration for dye leakage, cells were placed in the cuvette and stirred at 37° C. for 2-3 minutes. The cell suspension was then removed, the cells pelleted, and the supernatant returned to a clean cuvette. […] This estimate was subtracted from the apparent Fmin.
Dissociated bovine parathyroid cells were purified on gradients of Percoll and cultured overnight in serum-free medium.

net positive charge = format: physicochemical
[3] = test system: increases in [Ca2+]i elicited by extracellular Ca2+ in bovine parathyroid cells; assay: block of extracellular Ca2+-induced [Ca2+]i increase / Ca2+ influx in bovine parathyroid cells; format: cell-based
Method: as §1, §2

Which “effect on activated chloride currents” value [1] does the source give for `CNc1ccc2oc(C[C@H]3O[C@@]4(CC[C@H]3C)O[C@H]([C@H](C)C(=O)c3ccc[nH]3)[C@H](C)C[C@H]4C)nc2c1C(=O)O` [A23187] here?
The value was “activated”.

For `N[C@@H](CCC(=O)O)C(=O)O` [glutamate], which “response of bovine parathyroid cells or Xenopus oocytes expressing calcium receptors to mGluR agonists” value [2] is on record?
Its value is “did not respond”.

Which EC50 ([2]; read-out: EC50 (Table 3)) does the source give for `NCCNCCNCCN` [Triethylenetramine (TETA), triethylenetetramine] here?
The EC50 was […].

And the “Net (+) Charge (Table 1)” value (net positive charge)?
Its value is “+4”.

Which “effect on basal [Ca2+]i or increases evoked by extracellular Ca2+” value ([2]; 1 μM) does the source give for `CC1=C(C(=O)OC(C)C)C(c2cccc3nonc23)C([N+](=O)[O-])=C(C)N1` (single isomer, unassigned; (-)) [(-) 202-791] here?
Its value is “None”.

With `O=C(O)c1c2ccccc2cc2ccccc12` [9AC] as the molecule, how does the “effect on activated chloride currents” value [1] read?
Its value is “blocks the currents”.

Which “increase in [Ca2+]i (words)” value ([2]; 300 μM) does the source give for `COc1ccc(CC(=O)NCCCCCCCCCCCCN)cc1OC` [NPS 384] here?
The value was “did not evoke an increase”.

And the “block of influx of extracellular Ca2+” value ([3]; 300 μM)?
Its value is “blocked influx of extracellular”.

And the “effect of pretreatment on increases in [Ca2+]i elicited by extracellular Ca2+” value ([3]; 100 to 1000 μM)?
The value was “depresses steady-state, but not transient increases”.

And the “fall in [Ca2+]i” value ([3]; 100 to 1000 μM, buffer containing 2 mM CaCl2)?
The value was “prompt fall”.

Which “mobilization of intracellular Ca2+” value [2] does the source give for `NC[C@H]1O[C@H](O[C@H]2[C@H](O)[C@@H](O[C@H]3O[C@H](CO)[C@@H](O)[C@H](N)[C@H]3O)[C@H](N)C[C@@H]2N)[C@H](O)[C@@H](O)[C@@H]1O` [Kanamycin] here?
Its value is “without effect”.

What about the net positive charge (net positive charge; pH 7.3) of the same molecule?
The net positive charge was “~+4.5”.

Which “relative potency” value ([2]; vs NPS 467) does the source give for `COc1cccc(C(C)NCCC(c2ccccc2)c2ccccc2)c1` (stereo not shown) [meta-Methoxyfendiline] here?
Its value is “as potent as NPS 467”.

Which results are given for `N=C(N)NCCC[C@H](N)C(=O)NCCCNCCCNCCCCCNC(=O)[C@H](CC(N)=O)NC(=O)Cc1ccc(O)cc1O` [Argiotoxin-636]?
increase in [Ca2+]i (words) ([2]; 400 μM): did not elicit increases; potentiation of cytosolic Ca2+ response to extracellular Ca2+ ([2]; 400 μM): did potentiate cytosolic; increase in [Ca2+]i (words) ([2]; tested at concentrations similar to 100 to 300 μM): had no effect; net positive charge (net positive charge): +4

For `N=C(N)NCCC[C@H](N)C(=O)NCCCNCCCNCCCCCNC(=O)[C@H](CC(N)=O)NC(=O)Cc1c[nH]c2cccc(O)c12` [Argiotoxin-659], which “concentrations evoking transient increases in [Ca2+]i” value ([2]; bovine parathyroid cells) is on record?
Its value is 100 to 300 µM.

And the EC50 ([2]; read-out: EC50 (Table 1), parathyroid cells, screened as in Example 1)?
The EC50 was 300 µM.

What about the EC50 ([2]; read-out: EC50 for mobilization of intracellular Ca2+, bovine parathyroid cells) of the same molecule?
The EC50 was 300 µM.

What about the “Net (+) Charge (Table 1)” value (net positive charge) of the same molecule?
The value was “+4”.

What about the “net positive charge” value (net positive charge) of the same molecule?
The value was “+4”.

Which “block of influx of extracellular Ca2+” value ([3]; 100 μM) does the source give for `COc1ccc(CCN(C)CCCC(C#N)(c2ccc(OC)c(OC)c2)C(C)C)cc1OC` (stereo not shown) [verapamil] here?
Its value is “blocked the influx of extracellular”.

For `N[C@@H](Cn1oc(=O)[nH]c1=O)C(=O)O` [quisqualate], which “response of bovine parathyroid cells or Xenopus oocytes expressing calcium receptors to mGluR agonists” value [2] is on record?
Its value is “did not respond”.

Which “effect on inward currents to Gd3+” value ([1]; EGTA 100 μM, Gd3+ 600 μM) does the source give for `O=C(O)CN(CCOCCOCCN(CC(=O)O)CC(=O)O)CC(=O)O` [EGTA] here?
Its value is “prevents oocytes expressing the calcium receptor from responding”.

For `CC1=C(C(=O)OC(C)C)C(c2cccc3nonc23)C([N+](=O)[O-])=C(C)N1` (single isomer, unassigned; (+)) [(+) 202-791], which “effect on basal [Ca2+]i or increases evoked by extracellular Ca2+” value ([2]; 1 μM) is on record?
Its value is “None”.

For `[H]/N=C(/N)N[C@H]1[C@H](O)[C@@H](O)[C@H](O[C@@H]2O[C@@H](C)[C@](O)(C=O)[C@H]2O[C@@H]2O[C@@H](CO)[C@H](O)[C@@H](O)[C@@H]2NC)[C@@H](N/C(N)=N\[H])[C@@H]1O` [Streptomycin], which EC50 ([2]; parathyroid cells, screened as in Example 1, read-out: EC50 (Table 1)) is on record?
The EC50 was 600 µM.

And the “Net (+) Charge (Table 1)” value (net positive charge)?
The value was “+3”.

What about the net positive charge (net positive charge; pH 7.3) of the same molecule?
The net positive charge was “+3”.

Which EC50 ([2]; read-out: EC50 for mobilization of intracellular Ca2+ (Table 4), screened as in Example 1) does the source give for `NC[C@H]1O[C@H](O[C@H]2[C@H](O)[C@@H](O[C@H]3O[C@H](CO)[C@@H](O)[C@H](N)[C@H]3O)[C@H](N)C[C@@H]2N)[C@H](N)[C@@H](O)[C@@H]1O` [Bekanamycin] here?
Its EC50 is 200 µM.

What about the “Net (+) Charge (Table 1)” value (net positive charge) of the same molecule?
The value was “+5”.

And the net positive charge (net positive charge; pH 7.3)?
The net positive charge was “+5”.

For `NCCCCCN` [Cadaverine, cadaverine], which “net positive charge” value (net positive charge) is on record?
The value was “+2”.

With `CCOC(=O)C1=C(C)NC(C)=C(C(=O)OC)C1c1cccc([N+](=O)[O-])c1` (stereo not shown) [nitrendipine] as the molecule, how does the “effect on basal [Ca2+]i or increases evoked by extracellular Ca2+” value ([2]; 1 μM) read?
The value was “None”.

With Gentamicin as the molecule, how does the “Net (+) Charge (Table 1)” value (net positive charge) read?
Its value is “+5”.

And the net positive charge (net positive charge; pH 7.3)?
The net positive charge was “+5”.

For `NCCCN(CCCN)CCCN(CCCN)CCCCN(CCCN)CCCN(CCCN)CCCN` [NPS 381, N^1,N^1,N^5, N^10,N^14, N^14-hexakis-(3-aminopropyl) spermine], which “Net (+) Charge (Table 1)” value (net positive charge) is on record?
Its value is “+10”.

Which concentration eliciting responses ([1]; BoPCaR 1-injected oocytes) does the source give for `COc1cccc([C@H](C)NCCCc2ccccc2Cl)c1` [NPS S-568] here?
The concentration eliciting responses was 100 µM.

For `NCCCN1CCCN(CCCN)CCN(CCCN)CCCN(CCCN)CC1` [NPS 383], which “Net (+) Charge (Table 1)” value (net positive charge) is on record?
Its value is “+8”.

For `C[C@@H](NCCC(c1ccccc1)c1ccccc1)c1ccccc1` [R-Fendiline], which EC50 ([2]; bovine parathyroid cells, fura-2, read-out: EC50 PARATHYROID (Table 6)) is on record?
Its EC50 is 9 µM.

Which “effect on basal [Ca2+]i or increases evoked by extracellular Ca2+” value ([2]; 1 μM) does the source give for `COC(=O)C1=C(C)NC(C)=C([N+](=O)[O-])C1c1ccccc1C(F)(F)F` (stereo not shown) [BAY K 8644] here?
The value was “None”.

Which “mobilization of intracellular Ca2+” value [2] does the source give for `CCC[C@@H]1C[C@@H](C(=O)N[C@@H]([C@H]2O[C@H](SC)[C@H](O)[C@@H](O)[C@H]2O)[C@@H](C)O)N(C)C1` [Lincomycin] here?
Its value is “without effect”.

What about the net positive charge (net positive charge; pH 7.3) of the same molecule?
Its net positive charge is “+1”.

Which “response of bovine parathyroid cells or Xenopus oocytes expressing calcium receptors to mGluR agonists” value [2] does the source give for `N[C@@]1(C(=O)O)CC[C@@H](C(=O)O)C1` (relative stereo) [trans-ACPD] here?
The value was “did not respond”.

Which “relative potency” value ([2]; vs R-fendiline) does the source give for `CC(NCCCc1ccccc1)c1ccccc1` (stereo not shown) [compound 1D] here?
The value was “nearly as potent as the parent molecule”.

What does the source list for `CCCC(=O)N[C@@H](Cc1ccc(O)cc1)C(=O)NCCCCNCCCNCCCN` [Philanthotoxin-433]?
mobilization of intracellular Ca2+ [2]: without effect; net positive charge (net positive charge): +3

With `COC(=O)C1=C(C)NC(C)=C(C(=O)OC)C1c1ccccc1[N+](=O)[O-]` [nifedipine] as the molecule, how does the “effect on basal [Ca2+]i or increases evoked by extracellular Ca2+” value [2] read?
Its value is “None”.

Which “net positive charge” value (net positive charge) does the source give for `NCCCCN` [Putrescine] here?
Its value is “+2”.

For `COc1ccc([C@@H]2Sc3ccccc3N(CCN(C)C)C(=O)[C@@H]2OC(C)=O)cc1` [diltiazem], which “effective concentration, like verapamil and D-600” value [2] is on record?
Its value is 100 µM.

For `NCCCN(CCCN)CCCNCCCCNCCCN(CCCN)CCCN` [NPS 382, N^1,N^1,N^5,N^14, N^14-tetrakis-(3-aminopropyl)spermine], which “Net (+) Charge (Table 1)” value (net positive charge) is on record?
Its value is “+8”.

For `NCCNCCNCCNCCN` [Tetraethylenepentamine (TEPA), Tetraethylenepentamine], which “Net (+) Charge (Table 1)” value (net positive charge) is on record?
Its value is “+5”.

— patent US5858684A, “Method of screening calcium receptor-active molecules” (priority 1995, dated 1999)
